# Source: US10485235B2, “Aryloxypyrimidinyl ethers as herbicides” (FMC Corporation, priority 2015, dated 2019)
# System: barnyardgrass (Echinochloa crus-galli)
# Experiment: Test A preemergence, barnyardgrass
# Assay type: in vivo
# Conditions: Echinochloa crus-galli, pre-emergence, 240 h; Preemergence, 125 g ai/ha; 0 to 100 scale (0 no effect, 100 complete control); read-out: Plant response rating, Barnyardgrass
# Procedure, shortened: (§1)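 Scores (0 no effect to 100 complete control) come from visual comparison of treated and untreated plants kept about 10 days in a greenhouse. Growth medium was a loam/sand blend; preemergence treatment was a directed soil spray, postemergence treatment went onto plants at the 1–2 leaf stage.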
row,Compound,pest or weed control at 125 g/ha [%]
1,"N#Cc1cccc(Oc2ncc(Cl)cn2)c1OCC(F)(F)C(F)(F)F [Compound 10, 3-[(5-chloro-2-pyrimidinyl)oxy]-2-(2,2,3,3,3-pentafluoropropoxy)benzonitrile]",100

# Same assay, conditions: Echinochloa crus-galli, pre-emergence, 240 h; Preemergence, 500 g ai/ha; 0 to 100 scale (0 no effect, 100 complete control); read-out: Plant response rating, Barnyardgrass
row,Compound,pest or weed control at 500 g/ha [%]
1,"N#Cc1cccc(Oc2ncc(Cl)cn2)c1OCC(F)(F)C(F)(F)F [Compound 10, 3-[(5-chloro-2-pyrimidinyl)oxy]-2-(2,2,3,3,3-pentafluoropropoxy)benzonitrile]",100

# System: wheat (Triticum aestivum)
# Experiment: Test A postemergence, wheat
# Assay type: in vivo
# Conditions: Triticum aestivum, post-emergence, 240 h; 125 g ai/ha, postemergence; 0 to 100 scale, 0 is no effect, 100 is complete control; approximately 10 days; read-out: Plant response rating, Wheat
# Procedure, shortened: as §1
row,Compound,plant injury at 125 g/ha [%]
1,"N#Cc1cccc(Oc2ncc(Cl)cn2)c1OCC(F)(F)C(F)(F)F [Compound 10, 3-[(5-chloro-2-pyrimidinyl)oxy]-2-(2,2,3,3,3-pentafluoropropoxy)benzonitrile]",30

# Same assay, conditions: Triticum aestivum, post-emergence, 240 h; 500 g ai/ha, postemergence; 0 to 100 scale, 0 is no effect, 100 is complete control; approximately 10 days; read-out: Plant response rating, Wheat
row,Compound,plant injury at 500 g/ha [%]
1,"N#Cc1cccc(Oc2ncc(Cl)cn2)c1OCC(F)(F)C(F)(F)F [Compound 10, 3-[(5-chloro-2-pyrimidinyl)oxy]-2-(2,2,3,3,3-pentafluoropropoxy)benzonitrile]",90

# System: blackgrass (Alopecurus myosuroides)
# Experiment: Test A postemergence, blackgrass
# Assay type: in vivo
# Conditions: Alopecurus myosuroides, post-emergence, 240 h; 125 g ai/ha, postemergence; 0 to 100 scale, 0 is no effect, 100 is complete control; approximately 10 days; read-out: Plant response rating, Blackgrass
# Procedure, shortened: as §1
row,Compound,pest or weed control at 125 g/ha [%]
1,"N#Cc1cccc(Oc2ncc(Cl)cn2)c1OCC(F)(F)C(F)(F)F [Compound 10, 3-[(5-chloro-2-pyrimidinyl)oxy]-2-(2,2,3,3,3-pentafluoropropoxy)benzonitrile]",90

# Same assay, conditions: Alopecurus myosuroides, post-emergence, 240 h; 500 g ai/ha, postemergence; 0 to 100 scale, 0 is no effect, 100 is complete control; approximately 10 days; read-out: Plant response rating, Blackgrass
row,Compound,pest or weed control at 500 g/ha [%]
1,"N#Cc1cccc(Oc2ncc(Cl)cn2)c1OCC(F)(F)C(F)(F)F [Compound 10, 3-[(5-chloro-2-pyrimidinyl)oxy]-2-(2,2,3,3,3-pentafluoropropoxy)benzonitrile]",100

# System: corn (Zea mays)
# Experiment: Test A postemergence, corn
# Assay type: in vivo
# Conditions: Zea mays, post-emergence, 240 h; 125 g ai/ha, postemergence; 0 to 100 scale, 0 is no effect, 100 is complete control; approximately 10 days
# Procedure, shortened: as §1
row,Compound,"Corn plant response rating (crop injury, 0 = no effect, 100 = complete kill) at 125 g/ha [%]"
1,"N#Cc1cccc(Oc2ncc(Cl)cn2)c1OCC(F)(F)C(F)(F)F [Compound 10, 3-[(5-chloro-2-pyrimidinyl)oxy]-2-(2,2,3,3,3-pentafluoropropoxy)benzonitrile]",70

# Same assay, conditions: Zea mays, post-emergence, 240 h; 500 g ai/ha, postemergence; 0 to 100 scale, 0 is no effect, 100 is complete control; approximately 10 days
row,Compound,"Corn plant response rating (crop injury, 0 = no effect, 100 = complete kill) at 500 g/ha [%]"
1,"N#Cc1cccc(Oc2ncc(Cl)cn2)c1OCC(F)(F)C(F)(F)F [Compound 10, 3-[(5-chloro-2-pyrimidinyl)oxy]-2-(2,2,3,3,3-pentafluoropropoxy)benzonitrile]",100

# System: ragweed (common ragweed, Ambrosia elatior)
# Experiment: Test A preemergence, ragweed
# Assay type: in vivo
# Conditions: Ambrosia artemisiifolia, pre-emergence, 240 h; Preemergence, 125 g ai/ha; 0 to 100 scale (0 no effect, 100 complete control); read-out: Plant response rating, Ragweed
# Procedure, shortened: as §1
row,Compound,pest or weed control at 125 g/ha [%]
1,"N#Cc1cccc(Oc2ncc(Cl)cn2)c1OCC(F)(F)C(F)(F)F [Compound 10, 3-[(5-chloro-2-pyrimidinyl)oxy]-2-(2,2,3,3,3-pentafluoropropoxy)benzonitrile]",20

# Same assay, conditions: Ambrosia artemisiifolia, pre-emergence, 240 h; Preemergence, 500 g ai/ha; 0 to 100 scale (0 no effect, 100 complete control); read-out: Plant response rating, Ragweed
row,Compound,pest or weed control at 500 g/ha [%]
1,"N#Cc1cccc(Oc2ncc(Cl)cn2)c1OCC(F)(F)C(F)(F)F [Compound 10, 3-[(5-chloro-2-pyrimidinyl)oxy]-2-(2,2,3,3,3-pentafluoropropoxy)benzonitrile]",10

# System: pigweed (Amaranthus retroflexus)
# Experiment: Test A postemergence, pigweed
# Assay type: in vivo
# Conditions: Amaranthus retroflexus, post-emergence, 240 h; 125 g ai/ha, postemergence; 0 to 100 scale, 0 is no effect, 100 is complete control; approximately 10 days; read-out: Plant response rating, Pigweed
# Procedure, shortened: as §1
row,Compound,pest or weed control at 125 g/ha [%]
1,"N#Cc1cccc(Oc2ncc(Cl)cn2)c1OCC(F)(F)C(F)(F)F [Compound 10, 3-[(5-chloro-2-pyrimidinyl)oxy]-2-(2,2,3,3,3-pentafluoropropoxy)benzonitrile]",100

# Same assay, conditions: Amaranthus retroflexus, post-emergence, 240 h; 500 g ai/ha, postemergence; 0 to 100 scale, 0 is no effect, 100 is complete control; approximately 10 days; read-out: Plant response rating, Pigweed
row,Compound,pest or weed control at 500 g/ha [%]
1,"N#Cc1cccc(Oc2ncc(Cl)cn2)c1OCC(F)(F)C(F)(F)F [Compound 10, 3-[(5-chloro-2-pyrimidinyl)oxy]-2-(2,2,3,3,3-pentafluoropropoxy)benzonitrile]",100

# System: foxtail, giant (giant foxtail, Setaria faberii)
# Experiment: Test A preemergence, giant foxtail
# Assay type: in vivo
# Conditions: Setaria faberi, pre-emergence, 240 h; Preemergence, 125 g ai/ha; 0 to 100 scale (0 no effect, 100 complete control); read-out: Plant response rating, Foxtail, Giant
# Procedure, shortened: as §1
row,Compound,pest or weed control at 125 g/ha [%]
1,"N#Cc1cccc(Oc2ncc(Cl)cn2)c1OCC(F)(F)C(F)(F)F [Compound 10, 3-[(5-chloro-2-pyrimidinyl)oxy]-2-(2,2,3,3,3-pentafluoropropoxy)benzonitrile]",100

# Same assay, conditions: Setaria faberi, pre-emergence, 240 h; Preemergence, 500 g ai/ha; 0 to 100 scale (0 no effect, 100 complete control); read-out: Plant response rating, Foxtail, Giant
row,Compound,pest or weed control at 500 g/ha [%]
1,"N#Cc1cccc(Oc2ncc(Cl)cn2)c1OCC(F)(F)C(F)(F)F [Compound 10, 3-[(5-chloro-2-pyrimidinyl)oxy]-2-(2,2,3,3,3-pentafluoropropoxy)benzonitrile]",100

# System: barnyardgrass (Echinochloa crus-galli)
# Experiment: Test B flooded paddy test, barnyardgrass
# Assay type: in vivo
# Conditions: Echinochloa crus-galli; 250 g ai/ha, Flood; visual rating after 13 to 15 days; scale 0 to 100, 0 is no effect, 100 is complete control; read-out: Plant response rating, Barnyardgrass
# Procedure, shortened: (§2)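 Visual injury scored 0 (no effect) to 100 (complete control) relative to controls 13-15 days after treatment in greenhouse. Treatment: test compound added into paddy water of pots flooded 3 cm over soil, holding 2-leaf-stage plants; water level kept constant.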
row,Compound,pest or weed control at 250 g/ha [%]
1,"N#Cc1cccc(Oc2ncc(Cl)cn2)c1OCC(F)(F)C(F)(F)F [Compound 10, 3-[(5-chloro-2-pyrimidinyl)oxy]-2-(2,2,3,3,3-pentafluoropropoxy)benzonitrile]",50

# System: sedge, umbrella (small-flower umbrella sedge, Cyperus difformis)
# Experiment: Test B flooded paddy test, umbrella sedge
# Assay type: in vivo
# Conditions: Cyperus difformis; 250 g ai/ha, Flood; visual rating after 13 to 15 days; scale 0 to 100, 0 is no effect, 100 is complete control; read-out: Plant response rating, Sedge, Umbrella
# Procedure, shortened: as §2
row,Compound,pest or weed control at 250 g/ha [%]
1,"N#Cc1cccc(Oc2ncc(Cl)cn2)c1OCC(F)(F)C(F)(F)F [Compound 10, 3-[(5-chloro-2-pyrimidinyl)oxy]-2-(2,2,3,3,3-pentafluoropropoxy)benzonitrile]",85

# System: rice (Oryza sativa)
# Experiment: Test B flooded paddy test, rice
# Assay type: in vivo
# Conditions: Oryza sativa; 250 g ai/ha, Flood; visual rating after 13 to 15 days; scale 0 to 100, 0 is no effect, 100 is complete control; read-out: Plant response rating, Rice
# Procedure, shortened: as §2
row,Compound,plant injury at 250 g/ha [%]
1,"N#Cc1cccc(Oc2ncc(Cl)cn2)c1OCC(F)(F)C(F)(F)F [Compound 10, 3-[(5-chloro-2-pyrimidinyl)oxy]-2-(2,2,3,3,3-pentafluoropropoxy)benzonitrile]",20

# System: pigweed (Amaranthus retroflexus)
# Experiment: Test A preemergence, pigweed
# Assay type: in vivo
# Conditions: Amaranthus retroflexus, pre-emergence, 240 h; Preemergence, 125 g ai/ha; 0 to 100 scale (0 no effect, 100 complete control); read-out: Plant response rating, Pigweed
# Procedure, shortened: as §1
row,Compound,pest or weed control at 125 g/ha [%]
1,"N#Cc1cccc(Oc2ncc(Cl)cn2)c1OCC(F)(F)C(F)(F)F [Compound 10, 3-[(5-chloro-2-pyrimidinyl)oxy]-2-(2,2,3,3,3-pentafluoropropoxy)benzonitrile]",100

# Same assay, conditions: Amaranthus retroflexus, pre-emergence, 240 h; Preemergence, 500 g ai/ha; 0 to 100 scale (0 no effect, 100 complete control); read-out: Plant response rating, Pigweed
row,Compound,pest or weed control at 500 g/ha [%]
1,"N#Cc1cccc(Oc2ncc(Cl)cn2)c1OCC(F)(F)C(F)(F)F [Compound 10, 3-[(5-chloro-2-pyrimidinyl)oxy]-2-(2,2,3,3,3-pentafluoropropoxy)benzonitrile]",100

# System: ragweed (common ragweed, Ambrosia elatior)
# Experiment: Test A postemergence, ragweed
# Assay type: in vivo
# Conditions: Ambrosia artemisiifolia, post-emergence, 240 h; 125 g ai/ha, postemergence; 0 to 100 scale, 0 is no effect, 100 is complete control; approximately 10 days; read-out: Plant response rating, Ragweed
# Procedure, shortened: as §1
row,Compound,pest or weed control at 125 g/ha [%]
1,"N#Cc1cccc(Oc2ncc(Cl)cn2)c1OCC(F)(F)C(F)(F)F [Compound 10, 3-[(5-chloro-2-pyrimidinyl)oxy]-2-(2,2,3,3,3-pentafluoropropoxy)benzonitrile]",0

# Same assay, conditions: Ambrosia artemisiifolia, post-emergence, 240 h; 500 g ai/ha, postemergence; 0 to 100 scale, 0 is no effect, 100 is complete control; approximately 10 days; read-out: Plant response rating, Ragweed
row,Compound,pest or weed control at 500 g/ha [%]
1,"N#Cc1cccc(Oc2ncc(Cl)cn2)c1OCC(F)(F)C(F)(F)F [Compound 10, 3-[(5-chloro-2-pyrimidinyl)oxy]-2-(2,2,3,3,3-pentafluoropropoxy)benzonitrile]",50

# System: ryegrass, Italian (Italian ryegrass, Lolium multiflorum)
# Experiment: Test A preemergence, Italian ryegrass
# Assay type: in vivo
# Conditions: Lolium multiflorum, pre-emergence, 240 h; Preemergence, 125 g ai/ha; 0 to 100 scale (0 no effect, 100 complete control); read-out: Plant response rating, Ryegrass, Italian
# Procedure, shortened: as §1
row,Compound,pest or weed control at 125 g/ha [%]
1,"N#Cc1cccc(Oc2ncc(Cl)cn2)c1OCC(F)(F)C(F)(F)F [Compound 10, 3-[(5-chloro-2-pyrimidinyl)oxy]-2-(2,2,3,3,3-pentafluoropropoxy)benzonitrile]",40

# Same assay, conditions: Lolium multiflorum, pre-emergence, 240 h; Preemergence, 500 g ai/ha; 0 to 100 scale (0 no effect, 100 complete control); read-out: Plant response rating, Ryegrass, Italian
row,Compound,pest or weed control at 500 g/ha [%]
1,"N#Cc1cccc(Oc2ncc(Cl)cn2)c1OCC(F)(F)C(F)(F)F [Compound 10, 3-[(5-chloro-2-pyrimidinyl)oxy]-2-(2,2,3,3,3-pentafluoropropoxy)benzonitrile]",100

# System: kochia (Kochia scoparia)
# Experiment: Test A preemergence, kochia
# Assay type: in vivo
# Conditions: Bassia scoparia, pre-emergence, 240 h; Preemergence, 125 g ai/ha; 0 to 100 scale (0 no effect, 100 complete control); read-out: Plant response rating, Kochia
# Procedure, shortened: as §1
row,Compound,pest or weed control at 125 g/ha [%]
1,"N#Cc1cccc(Oc2ncc(Cl)cn2)c1OCC(F)(F)C(F)(F)F [Compound 10, 3-[(5-chloro-2-pyrimidinyl)oxy]-2-(2,2,3,3,3-pentafluoropropoxy)benzonitrile]",100

# Same assay, conditions: Bassia scoparia, pre-emergence, 240 h; Preemergence, 500 g ai/ha; 0 to 100 scale (0 no effect, 100 complete control); read-out: Plant response rating, Kochia
row,Compound,pest or weed control at 500 g/ha [%]
1,"N#Cc1cccc(Oc2ncc(Cl)cn2)c1OCC(F)(F)C(F)(F)F [Compound 10, 3-[(5-chloro-2-pyrimidinyl)oxy]-2-(2,2,3,3,3-pentafluoropropoxy)benzonitrile]",100

# System: ducksalad (Heteranthera limosa)
# Experiment: Test B flooded paddy test, ducksalad
# Assay type: in vivo
# Conditions: Heteranthera limosa; 250 g ai/ha, Flood; visual rating after 13 to 15 days; scale 0 to 100, 0 is no effect, 100 is complete control; read-out: Plant response rating, Ducksalad
# Procedure, shortened: as §2
row,Compound,pest or weed control at 250 g/ha [%]
1,"N#Cc1cccc(Oc2ncc(Cl)cn2)c1OCC(F)(F)C(F)(F)F [Compound 10, 3-[(5-chloro-2-pyrimidinyl)oxy]-2-(2,2,3,3,3-pentafluoropropoxy)benzonitrile]",70
